According to US20030216569A1, “Method of making HIV protease inhibitors” (priority 1993, published 2003):
Like-named read-outs stand apart in the source and are kept apart here.

Target: HIV-1 protease (Human immunodeficiency virus type 1 group M subtype B, UniProt P04585)
Experiment: Fluorescence HIV-1 Protease Inhibitor Assay (Pandex)
Format: biochemical
Parameters: made in house; host or cells: E. coli K12 L507/pHP10D (NRRL B-18560)
Protocol: A. Preparation of Protease and Gag Fractions
Lyophils of E. coli K12 L507/pHP10D were obtained from the Northern Regional Research Laboratory, Peoria, Ill. 61604, under the accession number NRRL B-18560 (deposited Nov. 14, 1989). The lyophils were decanted into tubes containing 10 ml LB medium (10 g Bacto-tryptone, 5 g Bacto-yeast extract, and 10 g aqueous sodium chloride per liter; the pH was adjusted to 7.5 and incubated at 32° C. overnight).
A small portion of the overnight culture was placed on LB-agar (LB medium with 15 g/L Bacto-agar) plates containing 12.5 micrograms/ml tetracycline in a manner so as to obtain a single colony isolate of E. coli K12 L507/pHP10D. The single colony obtained was inoculated into 10 ml of LB medium containing 12.5 micrograms/ml tetracycline and incubated overnight at 32° C. with vigorous shaking. The 10 ml overnight culture was inoculated into LB medium containing 12.5 micrograms/ml tetracycline and incubated at 32° C. with vigorous shaking until the culture reached mid-log phase. […]
3. Preparation of Protease Fraction
A culture of E. coli K12 L507/pHP10D was grown to mid-log phase at 32° C. in LB media containing 12.5 micrograms/ml tetracycline. The cultivation temperature was quickly elevated to 40° C. to induce gene expression, and the cells were allowed to grow for 2.5 hours at this temperature before the culture was quickly chilled on ice. The cells were centrifuged and the cell pellet was resuspended in 20 ml of 50 mmol MES buffer (pH 6.0) containing 1 mmol EDTA, 1 mmol DTT, 1 mmol PMSF and 10% glycerol (“Buffer A”). Cells were lysed by sonication using a Fischer Model 300 Dismembrator and a microtip probe. Following centrifugation at 27,000×g, the supernatant was diluted to a total volume of 60 ml with Buffer A and loaded onto a 2.0×19 cm QAE-Sepharose column (1 ml/min, 4° C.), that had been equilibrated in Buffer A. The column was washed isocratically for 180 min and then eluted with a gradient eluent of […] aqueous sodium chloride in Buffer A over 120 min. Enzymatic activity was measured by HPLC using the synthetic peptide Ser-Gln-Asn-Tyr-Pro-Ile-Val as described in Margolin et al., Biochem. Biophys. Res. Commun., 167, 554-560 (1990); the production of the p1 peptide (Ser-Gln-Asn-Tyr) was measured.
The active fractions were combined, adjusted to […] 1.2M in ammonium sulfate, and applied to a 2.0×18 cm hexyl agarose column that had been equilibrated in Buffer A containing 1.2M ammonium sulfate. The sample was loaded at a flow rate of 1 ml/min at 4° C., washed with the equilibration buffer for 240 min (1 ml/min) and then eluted using a reverse linear gradient of 1.2-0M ammonium sulfate in Buffer A for 120 min at the same flow rate. The column was then washed isocratically in Buffer A for 120 min.
The active fractions were combined, concentrated to 10 ml using an Amicon stirred cell with a YM-10 membrane and then applied to a MonoS cation exchange column (1.0×10 cm) that had been equilibrated in Buffer A. The sample was loaded at a flow rate of 1 ml/min at 25° C. After washing isocratically for 30 min, the protease was eluted using a linear gradient of 0-0.45M aqueous sodium chloride in Buffer A over 40 min. The column was washed isocratically in Buffer A containing 0.45M aqueous sodium chloride for 30 minutes.
The active fractions were combined and concentrated to 200 microliters using an Amicon stirred cell and a YM-10 membrane and then the protease was applied to a Superose 6 size exclusion column equilibrated in Buffer A containing 0.1M aqueous sodium chloride.

[1] = normalized to positive control (=1.0), * = a calculated average, read-out: Fluorescence Assay IC50 in ng/mL (converted)
[2] = value as run, 35B value of the same run in footnote or parentheses, read-out: Pandex IC50 ng/ml (converted)
[3] = normalized to positive control (=1.0), * = a calculated average
[4] = value as run, 35B value of the same run in footnote or parentheses

Compound: Cc1ccc(O)c(C)c1C(=O)NC(CSc1ccccc1)C(O)CN1CC2CCCCC2CC1C(=O)NC(C)(C)C (stereo not drawn) [Example 39, [3S-(3R*,4aR*,8aR*,2′S*,3′S*)]-2-[2′-Hydroxy-3′-phenylthiomethyl-4′-aza-5′-oxo-5′-[2″,6″-dimethyl-3″-hydroxyphenyl)pentyl] decahydroisoquinoline-3-N-t-butylcarboxamide]
- IC50 [1]: 0.00911 µM
- IC50 [2]: 0.0137 µM

Compound: CNc1cccc(C(=O)N[C@H](CSc2ccc3ccccc3c2)[C@H](O)Cc2ccccc2C(=O)NC(C)(C)C)c1C (relative stereo) [Example 43, [2′R-(2′R*,3′S*)]-N-t-Butyl-2-[2′-hydroxy-3′-naphth-2-ylthiomethyl-4′-aza-5′-oxo-5′-(2″-methyl-3″N(methyl)aminophenyl)pentyl] benzamide]
- Fluorescence Assay IC50 [3]: 0.54 mg/L

Compound: CC(C)(C)NC(=O)[C@@H]1C[C@@H]2CCCC[C@@H]2CN1C[C@@H](O)[C@H](CSc1ccccc1)NC(=O)[C@H]1CS(=O)(=O)CN1 (relative stereo) [[3S-(3R*, 4aR*, 8aR*, 2′S*, 3′S*, 4″S)]-2-[2′-Hydroxy-3′-phenylthiomethyl-4′-aza-5′-oxo-5′-(thiazolino-4″-yl-1″,1″-dioxide)pentyl]-decahydroisoquinoline-3-N-t-butyl carboxamide]
- Pandex IC50 [4]: 0.244 mg/L

Compound: Cc1c(C(=O)N[C@@H](Cc2ccccc2)[C@H](O)CN2C[C@H]3CCCC[C@H]3C[C@H]2C(=O)NC(C)(C)C)cc[nH]c1=O (relative stereo) [Example 16, [3S-(3R*,4aR*,8aR*,2′S*,3′R*)]-2-[2′-Hydroxy-3′-phenylmethyl-4′-aza-5′-oxo-5′-(2″-oxo-3″-methyl-pyrid-4″-yl)pentyl] decahydroisoquinoline-3-N-t-butylcarboxamide]
- Fluorescence Assay IC50 [3]: 0.329 mg/L
- Pandex IC50 ng/ml [4]: 125^e ng/ml

Compound: Cc1ccc(N)cc1C(=O)N[C@H](CSc1ccc2ccccc2c1)[C@H](O)Cc1ccccc1C(=O)NC(C)(C)C (relative stereo) [Example 47, [2′R-(2′R*,3′S*)]-N-t-Butyl-2-[2′-hydroxy-3′-naphth-2-ylthiomethyl-4′-aza-5′-oxo-5′-(2″-methyl-5″-aminophenyl)pentyl] benzamide]
- Fluorescence Assay IC50 [3]: 0.091 mg/L

Compound: Cc1ccc(O)cc1C(=O)N[C@H](CSc1ccc2ccccc2c1)[C@H](O)Cc1ccccc1C(=O)NC(C)(C)C (relative stereo) [Example 72, [2′R-(2′R*,3′S*)]-N-t-Butyl-2-[2′-hydroxy-3′-naphth-2-ylthiomethyl-4′-aza-5′-oxo-5′-(2″-methyl-5″-hydroxyphenyl)pentyl] benzamide]
- Fluorescence Assay IC50 [3]: 0.63 mg/L

Compound: CC(C)(C)NC(=O)c1ccccc1C[C@@H](O)[C@H](Cc1ccccc1)NC(=O)c1cccc2c1CCNC2 [Example 60, [2′R-(2′R*,3′S*)]-N-t-Butyl-2-[2′-hydroxy-3′-phenylmethyl-4′-aza-5′-oxo-5′-(1″,2″,3″,4″-tetrahydroisoquinolin-5″-yl)pentyl] benzamide]
- IC50 [1]: 0.801 µM

Compound: CC(C)(C)NC(=O)c1ccccc1C[C@@H](O)[C@H](CSc1ccc2ccccc2c1)NC(=O)c1cccc2c1CCCN2 (relative stereo) [Example 64, [2′R-(2′R*,3′S*)]-N-t-Butyl-2-[2′-hydroxy-3′-naphth-2-ylthiomethyl-4′-aza-5′-oxo-5′-(1″,2″,3″,4″-tetrahydroquinolin-5″-yl)pentyl] benzamide]
- IC50 [1]: 0.194 µM

Compound: Cc1c(O)cccc1C(=O)N[C@@H](Cc1ccccc1)[C@H](O)Cc1ccccc1C(=O)NC(C)(C)C [Example 40, [2R′-(2R′*,3′S*)]-N-t-Butyl-2-[2′-hydroxy-3′-phenylmethyl-4′-aza-5′-oxo-5′-(2″methyl-3″-hydroxyphenyl)pentyl]benzamide]
- IC50 [1]: 0.0211 µM

Compound: Cc1ccsc1C(=O)N[C@@H](CSc1ccccc1)[C@H](O)CN1C[C@H]2CCCC[C@H]2C[C@H]1C(=O)NC(C)(C)C (relative stereo) [Example 90, [3S-(3R*, 4aR*, 8aR*, 2′S*, 3′S*)]-2-[2′-Hydroxy-3′-phenylthiomethyl-4′-aza-5′-oxo-5′-(3″-methyl-thieno-2″-yl)pentyl]-decahydroisoquinoline-3-N-t-butyl carboxamide]
- IC50 [2]: 0.0484 µM

Compound: Cc1c(O)cccc1C(=O)N[C@@H](Cc1ccccc1)[C@H](O)CN1CCC[C@H]1C(=O)NC(C)(C)C (relative stereo) [Example 4, [2S-(2R*,2′S*,3′R*)]-1-[2′-Hydroxy-3′-phenylmethyl-4′-aza-5′-oxo-5′-(2″-methyl-3″-hydroxyphenyl)pentyl] pyrrolidine-2-N-t-butylcarboxamide]
- Fluorescence Assay IC50 in ng/mL [3]: 1425* ng/mL

Compound: CC(C)(C)NC(=O)c1ccccc1C[C@@H](O)[C@H](CSc1ccc2ccccc2c1)NC(=O)c1cccc2ncccc12 (relative stereo) [Example 63, [2′R-(2′R*,3′S*)]-N-t-Butyl-2-[2′-hydroxy-3′-naphth-2-ylthiomethyl-4′-aza-5′-oxo-5′-(quinolin-5″-yl)pentyl] benzamide]
- IC50 [1]: 0.433 µM

Compound: COc1cccc(C(=O)NC(Cc2ccccc2)C(O)CN2CC3CCCCC3CC2C(=O)NC(C)(C)C)c1C (stereo not drawn) [Example 13, [3S-(3R*,4aR*,8aR*,2′S*,3′R*)]-2-[2′-Hydroxy-3′-phenylmethyl-4′-aza-5′-oxo-5′-(2″-methyl-3″-methoxyphenyl)pentyl] decahydroisoquinoline-3-N-t-butylcarboxamide]
- IC50 [1]: 0.629 µM

Compound: Cc1c(O)cccc1C(=O)N[C@@H](Cc1ccccc1)[C@H](O)CN1CCCC[C@H]1C(=O)NC(C)(C)C (relative stereo) [Example 6, [2S-(2R*,2′S*,3′R*)]-1-[2′-Hydroxy-3′-phenylmethyl-4′-aza-5′-oxo-5′-(2″methyl-3″-hydroxyphenyl)pentyl]piperidine-2-N-t-butylcarboxamide]
- Fluorescence Assay IC50 in ng/mL [3]: 513* ng/mL

Compound: CC(=O)Oc1cccc(C(=O)N[C@@H](Cc2ccccc2)[C@H](O)CN2C[C@H]3CCCC[C@H]3C[C@H]2C(=O)NC(C)(C)C)c1C (relative stereo) [Example 82, [3S-(3R*, 4aR*, 8aR*, 2′S*, 3′R*)]-2-[2′-Hydroxy-3′-phenylmethyl-4′-aza-5′-oxo-5′-(2″-methyl-3″-(acetyl)hydroxyphenyl)pentyl]decahydroisoquinoline-3-N-t-butyl carboxamide]
- IC50 [2]: 0.325 µM

Compound: Cc1c(N)cc(N)cc1C(=O)N[C@H](CSc1ccc2ccccc2c1)[C@H](O)Cc1ccccc1C(=O)NC(C)(C)C (relative stereo) [Example 53, [2′R-(2′R*,3′S*)]-N-t-Butyl-2-[2′-hydroxy-3′-naphth-2-ylthiomethyl-4′-aza-5′-oxo-5′-(2″-methyl-3″,5″-diaminophenyl)pentyl] benzamide]
- Fluorescence Assay IC50 [3]: 0.055 mg/L

Compound: CC(C)(C)NC(=O)C1CC2CCCCC2CN1CC(O)C(Cc1ccccc1)NC(=O)c1cc(O)cc(O)c1Cl (stereo not drawn) [Example 8, [3S-(3R*,4aR*,8aR*,2′S*,3′R*)]-2-[2′-Hydroxy-3′-phenylmethyl-4′-aza-5′-oxo-5′-(2″-chloro-3″,5″-dihydroxyphenyl)pentyl] decahydroisoquinoline-3-N-t-butylcarboxamide]
- IC50 [1]: 0.0287 µM
- IC50 [2]: 0.0101 µM

Compound: CC(C)(C)NC(=O)C1CC2CCCCC2CN1CC(O)C(Cc1ccccc1)NC(=O)c1cccc2c1CCCN2 (stereo not drawn) [Example 37, [3S-(3R*,4aR*,8aR*,2′S*,3′S*)]-2-[2′-Hydroxy-3′-phenylmethyl-4′-aza-5′-oxo-5′-[(1″,2″,3″,4″-tetrahydroquinolin-5″-yl)]pentyl] decahydroisoquinoline-3-N-y-butylcarboxamide]
- IC50 [1]: 0.049 µM
- IC50 [2]: 0.0588 µM
